From patent US10709132B2, “Microbicidal composition” (DDP SPECIALTY ELECTRONIC MATERIALAS US, INC., priority 2015, dated 2020)
Where two headings read alike, the source gives them in different places.

Legend:
Assay type in all cases: cell-based
[1] = tested on: Aspergillus brasiliensis ATCC #16404; experiment: Synergy test by MIC in 96 well microtiter plates, mold; details: ATCC16404, 168 h, A. brasiliensis, contact time 7 days, 25° C., potato dextrose broth, read-out: MIC of compound acting alone (CA / CB)
Method: (§1) DMO with Pine oil was evaluated for synergy by determining the synergy index (S.I.) of the combination. Incubation temperature for bacteria was 30° C. and for fungi was 25° C. Synergy index was calculated based on minimum inhibitory concentrations (MIC) of two antimicrobial compounds (CA and CB) alone and in combinations (Ca and Cb). The test organisms were gram negative bacteria (Pseudomonas aeruginosa ATCC #15442), gram positive bacteria (Staphylococcus aureus ATCC #6538), and yeast (Candida albicans ATCC #10231) and mold (Aspergillus brasiliensis ATCC #16404). The test was carried out in 96 well microtiter plates. Contact time for the bacteria and yeast was 24 and 48 hours, and contact time for mold was 3 and 7 days. […] SI is calculated as follows: Ca/CA+Cb/CB=Synergy Index (“SI”) Wherein: • CA=concentration of compound A in ppm, acting alone, which produced an end point (MIC of Compound A). • Ca=concentration of compound A in ppm, in the mixture, which produced an end point. • CB=concentration of compound B in ppm, acting alone, which produced an end point (MIC of Compound B). • Cb=concentration of compound B in ppm, in the mixture, which produced an end point. When the sum of Ca/CA and Cb/CB is greater than one, antagonism is indicated. […] [table] [table] [table]

[2] = tested on: Staphylococcus aureus ATCC #6538; experiment: Synergy test by MIC in 96 well microtiter plates, gram positive bacteria; details: ATCC6538, S. aureus, 30° C., 10% tryptic soy broth, read-out: MIC of compound acting alone (CA / CB)
Method: as §1

[3] = tested on: Candida albicans ATCC #10231; experiment: Synergy test by MIC in 96 well microtiter plates, yeast; details: ATCC10231, C. albicans, 25° C., potato dextrose broth, read-out: MIC of compound acting alone (CA / CB)
Method: as §1

MIC [1]: 500 µg/mL
MIC ([2]; contact time 24 hrs): 75 µg/mL
MIC ([2]; contact time 48 hrs): 75 µg/mL
MIC ([3]; contact time 24 hrs): 1000 µg/mL
MIC ([3]; contact time 48 hrs): 1000 µg/mL
SMILES: CC1(C)COCN1 [DMO, 4,4-dimethyloxazolidine]
